Entries after “also recorded” stand apart in the source; their conditions may differ.
Columns and labels:
[1] = tested on: NT2/D1 cells; assay: Gene expression microarray with PAM cluster analysis (Tables 1-5); type: cell-based, human; details: 1.5-fold or greater
Protocol: The cisplatin treatment protocol has been previously described (Kerley-Hamilton et al. 2005. Oncogene 24:6090-6100).
The same effect was not observed in cells treated with cisplatin; gene expression levels were not dramatically altered in cisplatin-treated cells. […] The genes clustered into distinct patterns.
Next, partitioning around medoids (PAM) analysis was performed on the 1130 genes whose expression levels changed by 1.5-fold or greater as compared to control treatment. […] Changes in gene expression levels of representative genes for each cluster were confirmed in independent samples by real-time PCR (FIG. 10).
Expression analysis was performed on the […] HumanHT-12 v3 or […] HumanHT-12 v4 bead chip arrays ([…]) and scanned on the BeadArray Reader ([…]) according to manufacturer's instructions.

[2] = tested on: RIN1, SOX15 and TLR4 in NT2/D1 cells; assay: Real-time PCR of gene expression; type: cell-based; details: 10 nM, 3 days, FIG. 14
Text: The graph depicts an average of triplicate sample determinations. Error bars are standard deviation. *=p<0.05; **=p<0.005.
(§1) However, methylation changes were less robust in the experiments in NT2/D1 cells. Only 12 genes were identified as having significant decreases in promoter methylation. […] These six genes included RIN1, SOX15, TLR4, GPER, TRIM54, and CD164L2.
(§2) SYBR green-based real-time PCR (Applied Biosystems) was employed using the ddCT method normalized to GAPDH. For western blot analysis cells were lysed in radioimmune precipitation buffer and separated by SDS-PAGE. Antibodies to actin (sc01615, Santa Cruz), 139-H2AX (Cell Signaling), PARP (c-2-10, Biomol International) and p53 (D0-1, Santa Cruz) were used.

[3] = tested on: 833K cells; assay: Cell-Titre Glo viable cell growth and survival, 3 day decitabine; type: cell-based; details: Homo sapiens, 72 h, 3 day treatment, FIG. 1, read-out: IC50, growth inhibition
Protocol: (§3) Indicated doses of decitabine were added fresh each day for three days to exponentially growing cultures. Viable cell growth and survival were measured. Data are normalized to no drug treatment. EC cells are NT2/D1, NT2D1/R1, 833K, 833KCP, and Tera-1. Data are the average of 3 experiments in biological duplicate except for MCF-7 cells, which were assayed twice. Error bars are standard deviation (S.D.).
(§4) Cell growth and viability of five EC cell lines (NT2/D1, NT2D1/R1, 833K, 833KCP, and Tera-1) were determined, including two cell lines that are cisplatin-resistant (NT2/D1-R1 and 833KCP). Three control somatic tumor cell lines were also tested (HCT116, MCF7 and U2OS). […] Viable cell growth and survival were measured using Cell-Titre Glo (Promega) assays. […] These higher values are similar to the values shown in FIG. 1 for somatic tumor cell lines (MCF7, U2OS and HCT116).
(§5) NT2/D1, NT2D1-R1, 833K, 833K-CP, Tera-1, U20S, and HCT116 cells were cultured in DMEM with 10% FBS supplemented with glutamine and antibiotics except for MCF7 cells that were cultured in F12-DMEM. The derivation of the NT2/D1-resistant NT2/D1-R1 cell line has been previously described (Curtin et al. 2001. Oncogene 20:2559-2569; Kerley-Hamilton et al. 2007. Biochim. Biophys. Acta 1769:209-219). Cells were treated with the indicated dosages of 5-azadeoxycytidine (5-aza-CdR) for 3 days. This drug was replenished each day. […]

[4] = tested on: 833K-CP cells; assay: as above; type: cell-based; details: 2.5 nM, FIG. 1
Protocol: as §3, §4, §5

[5] = tested on: RIN1, SOX15 and TLR4 promoter in NT2/D1 cells; assay: Promoter specific bisulfite pyrosequencing; type: cell-based; details: 10 nM, 3 days, FIG. 13
Text: The graph depicts an average of triplicate sample determinations. Error bars are standard deviation. **=p<0.005. SOX15 values represent the average methylation value across two CpG sites. RIN1 and TRL4 values represent the average methylation across three CpG sites.
as §1
(§6) Genomic DNA was isolated with the QIAMP DNA mini kit (Qiagen) and bisulfite converted with the EZ DNA methylation kit (Zymo Research). DNA was amplified with HOTSTARTAQ plus DNA polymerase (Qiagen). The LINE-1 pyrosequencing assay averages across four CpG sites and has been described previously (Kashiwagi et al. 2011. Nucleic Acids Res. 39:874-888). Pyrosequencing assays for RIN1, SOX15, and TLR4 were designed with PyroMark assay design software (Qiagen) to sequence across corresponding probes cg0599842, cg02515422 and cg13098960 on the HumanMethylation27 BeadChip.

[6] = tested on: LINE-1 elements in NT2/D1 cells; assay: LINE-1 element bisulfite pyrosequencing (global DNA methylation); type: cell-based; details: low dose decitabine
Text: as §6

[7] = tested on: colorectal cancer, cancer of the head and neck, renal carcinoma, or malignant melanoma; details: 75 mg/m^2, 3 treatments in one day, repeated once a week for 5 weeks; Abele et al. 1987; cited from earlier work
[8] = tested on: NT2/D1-R1 cells; assay: Apoptosis by PARP cleavage and sub G1 DNA content; type: cell-based; details: decitabine 10 nM, three days; NT2/D1-R1
Protocol: (§7) Importantly, decitabine-mediated H2AX activation also occurs in the presence of the caspase 3 inhibitor (Z-VAD-FMK) at concentrations that inhibit PARP cleavage.
(§8) Cells were cultured in DMEM media (Gibco) with 10% FBS. Decitabine was added fresh each day. Lentiviral control cells and the stable shRNA DNMT3B knockdown cell line (NT2/D1-R1-sh84) were described previously (Beyrouthy et al. 2009. Cancer Res. 69:9360-9366). DNMT3B knockdown was greater than 90% as confirmed by western blot analysis. Cell proliferation and survival were assessed with the CELL-TITRE GLO assay (Promega). Cell cycle analysis with propidium iodine has been previously described (Kerley-Hamilton et al. 2005. Oncogene 24:6090-6100).
as §2

[9] = tested on: NT2/D1 cells; assay: Apoptosis by PARP cleavage and sub G1 DNA content; type: cell-based; details: decitabine 10 nM, three days; NT2/D1
Protocol: as §8, §2

[10] = tested on: non-seminiferous testicular cancer (germ cell testicular cancer); details: 75 mg/m^2, 3 infusions in one day, repeated once a week for 5 weeks; Clavel et al. 1992; cited from earlier work
[11] = tested on: phosphorylated H2AX in NT2/D1-R1 cells; assay: DNA damage by induction of phosphorylated H2AX (western blot); type: cell-based; details: three day decitabine treatment
Text: as §7, §2

[12] = tested on: U87 glioblastomoa cells; assay: Decitabine treatment of glioblastoma cells; type: cell-based; details: doses as high as 1 μM

For `Nc1ncn([C@H]2C[C@H](O)[C@@H](CO)O2)c(=O)n1` [decitabine, 5-aza-deoxycytidine], the “Cluster 1: genes primarily up-regulated only with 3 days of decitabine treatment” value ([1]; 10 nM, 3 days) was 704 genes, the “Cluster 3: genes upregulated by both decitabine treatment and cisplatin treatment” value [1] was 71 genes and the “Cluster 4: genes down-regulated by decitabine, enriched in pluripotency genes” value [1] was 186 genes. For the same compound, the “Cluster 5: genes down-regulated by both decitabine treatment and cisplatin treatment” value [1] was 88 genes, the “expression of RIN1, SOX15 and TLR4 (real-time PCR)” value [2] was “increased expression” and the IC50 [3] was 5 to 25 nM. The inhibition at 0.0025 µM [4] was 10%, the “promoter methylation of RIN1, SOX15 and TLR4 (bisulfite pyrosequencing)” value [5] was “decreased promoter methylation” and the “global DNA methylation (LINE-1 bisulfite pyrosequencing)” value [6] was “significant reduction in global DNA methylation”. For the same compound, the “efficacy against cancer in patients” value [7] was “no efficacy”, the “apoptotic responses (PARP cleavage, sub G1 DNA content with G2 arrest)” value [8] was “apoptotic responses; also recorded: induced apoptosis” and the “apoptotic responses (PARP cleavage, sub G1 DNA content with G2 arrest)” value [9] was “apoptotic responses”. For the same compound, the “activity in Phase II clinical trial patients” value [10] was “no activity”, the “DNA damage assessed by induction of phosphorylated H2AX” value [11] was “induced DNA damage” and the “effect of decitabine treatment on U87 cells” value [12] was “unaffected”.

Source: patent publication US9476099B2 (TRUSTEES OF DARTMOUTH COLLEGE, priority 2012, dated 2016)
